Several values for one entry are separate records, joined by “and”; a condition that tells them apart may be missing. Equal entries are not always repeated. Where two headings read alike, the source gives them in different places.
Assays:
[1] = molecular target: T1, human norepinephrine transporter (hNET) (Homo sapiens, UniProt P23975); test: cell-based
[2] = molecular target: T2, human dopamine transporter (hDAT) (Homo sapiens, UniProt Q01959); test: cell-based
[3] = molecular target: T1, human norepinephrine transporter (hNET); test: biochemical; assay type: binding
[4] = molecular target: T2, human dopamine transporter (hDAT); test: biochemical; assay type: binding
male Swiss-Webster mice [5] = test: animal or person; assay type: in vivo
male Swiss-Webster mice [6] = test: Cocaine interaction study (locomotor activity); assay type: in vivo; details: planned comparisons on log10 horizontal activity counts, 20 mg/kg cocaine IP
[7] = read-out: [3H]Dopamine Uptake IC50
[8] = read-out: [125I]RTI-55 binding Ki, NET
[9] = read-out: [125I]RTI-55 binding Ki, DAT
[10] = HEK-hNET cells, read-out: [3H]NE Uptake IC50
[11] = Table 2, read-out: Reuptake [3H]NE (Ki ± SD)
[12] = HEK-hNET cells, read-out: [125I]RTI-55 binding Ki, NET

T1 sequence (P23975 whole entry): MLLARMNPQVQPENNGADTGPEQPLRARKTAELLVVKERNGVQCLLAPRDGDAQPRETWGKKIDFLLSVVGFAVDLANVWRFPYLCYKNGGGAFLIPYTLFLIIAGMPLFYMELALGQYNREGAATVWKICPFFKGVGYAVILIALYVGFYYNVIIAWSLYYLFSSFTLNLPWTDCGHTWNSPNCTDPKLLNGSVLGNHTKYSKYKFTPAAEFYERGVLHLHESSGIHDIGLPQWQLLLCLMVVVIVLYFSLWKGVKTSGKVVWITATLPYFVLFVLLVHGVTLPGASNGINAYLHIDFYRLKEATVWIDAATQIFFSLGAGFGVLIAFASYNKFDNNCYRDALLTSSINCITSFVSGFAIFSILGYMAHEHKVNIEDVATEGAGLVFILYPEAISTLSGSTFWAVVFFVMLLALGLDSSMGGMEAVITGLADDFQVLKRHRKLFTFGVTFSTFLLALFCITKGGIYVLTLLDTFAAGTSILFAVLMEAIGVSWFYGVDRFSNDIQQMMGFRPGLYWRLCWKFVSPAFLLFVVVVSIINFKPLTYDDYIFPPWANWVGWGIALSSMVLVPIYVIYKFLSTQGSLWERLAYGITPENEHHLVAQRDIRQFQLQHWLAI
T2 sequence (Q01959 whole entry): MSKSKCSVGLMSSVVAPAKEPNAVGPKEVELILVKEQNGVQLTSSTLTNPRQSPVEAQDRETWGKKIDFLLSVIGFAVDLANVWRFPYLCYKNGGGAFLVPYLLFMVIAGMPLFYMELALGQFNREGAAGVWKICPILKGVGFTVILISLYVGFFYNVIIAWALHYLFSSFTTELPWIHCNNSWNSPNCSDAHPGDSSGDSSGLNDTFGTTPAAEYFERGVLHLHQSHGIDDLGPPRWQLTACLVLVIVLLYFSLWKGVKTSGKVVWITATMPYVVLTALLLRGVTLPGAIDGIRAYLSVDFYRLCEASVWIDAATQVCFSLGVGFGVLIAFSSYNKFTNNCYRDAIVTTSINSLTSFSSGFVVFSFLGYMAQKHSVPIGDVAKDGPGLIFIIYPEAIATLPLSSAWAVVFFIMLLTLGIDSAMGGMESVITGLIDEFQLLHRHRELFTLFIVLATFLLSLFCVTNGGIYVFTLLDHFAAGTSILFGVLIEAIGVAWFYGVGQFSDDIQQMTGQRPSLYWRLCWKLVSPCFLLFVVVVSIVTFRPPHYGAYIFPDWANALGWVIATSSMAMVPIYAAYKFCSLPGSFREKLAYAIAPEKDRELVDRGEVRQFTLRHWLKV

Structure (SMILES) | Discrimination ratio uptake/binding (DA) [2] | IC50 [2, 7] [µM] | Ki [3, 8] [µM] | Binding discrimination ratio NET/DAT [4] | Binding discrimination ratio SERT/DAT [4] | Hill coefficient [4] | Ki [4, 9] [µM] | Hill coefficient [3] | Ki ([4]; [125I]RTI-55 binding Ki, DAT) [µM] | Discrimination Ratio DAT Binding/Reuptake [2] | IC50 ([1]; read-out: [3H]NE Uptake IC50) | further results
O=C1CN(CCCCOC(c2ccc(F)cc2)c2ccc(F)cc2)CCN1 [Compound 31524] | 0.6 | 2.29 | > 10 | >2.4 | 0.4 | −064 ± 0.03 | 4.1 |  |  |  |  | Ki ([1]; read-out: Reuptake [3H]NE (Ki ± SD)): > 10 µM; Ki ([2]; read-out: Reuptake [3H]DA (Ki ± SD)): 2.29 ± 0.2 µM
CC(=O)C1(c2ccccc2)CCN(CCCCOC(c2ccc(F)cc2)c2ccc(F)cc2)CC1 [Compound 31525] | 47.5 |  |  | 5.3 | 5.8 | −0.61 ± 0.01 |  | −0.71 ± 0.06 | 0.0217 |  |  | IC50 [1, 10]: 2.55 µM; Ki [1, 11]: 2.55 ± 0.95 µM; IC50 ([2]; HEK-hDAT cells, read-out: [3H]Dopamine Uptake IC50): 1.03 µM; Ki ([2]; Table 2, read-out: Reuptake [3H]DA (Ki ± SD)): 1.03 ± 0.33 µM; Ki [3, 12]: 0.114 µM
Fc1ccc(C(OCCCCN2CCN(c3ccc(F)cc3)CC2)c2ccc(F)cc2)cc1 [Compound 31527] | 23.0 |  |  | 7.8 | 1.3 | −0.84 ± 0.05 |  | −0.72 ± 0.05 | 0.0265 | 23.0 |  | Ki [1]: 0.225 ± 0.028 µM; IC50 ([1]; [3H]NE Uptake IC50): 0.225 ± 0.028 µM; IC50 [2]: 0.61 µM; Ki [2]: 0.61 ± 0.15 µM; Ki ([3]; [125I]RTI-55 binding Ki, NET): 0.207 µM
OC1(c2ccccc2)CCN(CCCCOC(c2ccc(F)cc2)c2ccc(F)cc2)CC1 [Compound 31531] | 15.0 |  |  | 8.4 | 2.8 | −0.63 ± 0.06 |  | −0.73 ± 0.03 | 0.0064 |  |  | IC50 [1, 10]: 0.179 µM; Ki [1, 11]: 0.179 ± 0.047 µM; IC50 [2]: 0.096 µM; Ki [2]: 0.096 ± 0.011 µM; Ki ([3]; [125I]RTI-55 binding Ki, NET): 0.054 µM
Fc1ccc(C(OCCCCN2CCNC(c3ccccc3)C2)c2ccc(F)cc2)cc1 (stereo not shown) [Compound 31533] | 144.4 |  |  | 49.9 | 19.6 |  |  |  |  |  |  | ED50 (male Swiss-Webster mice [5]; Mus musculus, ip, read-out: ED50 (dose producing ½ maximal stimulant activity)): 1.52 mg/kg; Maximal effect/cocaine maximal effect ratio (ME/CME) (male Swiss-Webster mice [5]; mouse, in vivo): 0.30; Maximum effect, horizontal activity (male Swiss-Webster mice [5]; mouse, in vivo): 1648.6 counts/10 min; Dose at estimated maximum effect (male Swiss-Webster mice [5]; mouse, in vivo, ip): 10.26 mg/kg; Ki [1]: 0.29 ± 0.13 µM; Ki [2]: 0.55 ± 0.14 µM; Doses with significant differences against the cocaine group (p<0.05) (male Swiss-Webster mice [6]): 30 mg/kg
OC1(c2ccc(Cl)cc2)CCN(CCCCOC(c2ccc(F)cc2)c2ccc(F)cc2)CC1 [Compound 31625] |  |  |  | 51.7 | 2380 | −0.74 ± 0.25 |  | −0.99 ± 0.22 | 0.0042 | 95.2 |  | IC50 [1, 10]: 0.8 µM; IC50 ([2]; HEK-hDAT cells, text of Examples 20 and 24, read-out: [3H]Dopamine Uptake IC50): 0.4 µM; Ki [3, 12]: 0.217 µM
Fc1ccc(C(OCCCCN2CCN(c3ccccc3Cl)CC2)c2ccc(F)cc2)cc1 [Compound 31626] |  | 0.328 | 0.54 | 8.1 | 1.3 | −1.11 ± 0.08 | 0.067 | −1.39 ± 0.23 |  | 4.9 | 0.29 µM and 0.299 µM | 
O=C1c2ccccc2C(=O)N1CCCCN1CCC(O)(c2ccc(Br)cc2)CC1 [Compound 31627] |  | >10 |  | 1 | >0.2 |  |  |  |  |  | >10 µM | Ki ([3]; HEK-hNET cells, bound given in μM, read-out: [125I]RTI-55 binding Ki, NET): > 10 µM; Ki ([4]; HEK-hDAT cells, bound given in μM, read-out: [125I]RTI-55 binding Ki, DAT): > 10 µM
NC(=O)C1CCCN(CCCCOC(c2ccc(F)cc2)c2ccc(F)cc2)C1 (stereo not shown) [Compound 31628] |  | 0.056 | 0.578 | 6.1 | 1.4 | −1.02 ± 0.16 | 0.094 | −1.48 ± 0.70 |  | 0.6 | 0.158 µM | 
OC1CCN(CCCCOC(c2ccc(F)cc2)c2ccc(F)cc2)CC1 [Compound 31648] |  | 0.101 | 0.61 | 5.4 | 3.7 | −0.69 ± 0.07 | 0.124 ± 0.027 | −0.75 ± 0.06 |  | 0.9 | 0.143 µM | 
O=c1[nH]c2ccccc2n1C1CCN(CCCCOC(c2ccc(F)cc2)c2ccc(F)cc2)CC1 [Compound 31649] |  | 0.426 | 0.0222 | 16.8 | 2.9 | −0.63 ± 0.23 | 0.00132 | −0.47 ± 0.03 |  | 323 | 0.132 µM | 
OC1CCCN(CCCCOC(c2ccc(F)cc2)c2ccc(F)cc2)C1 (stereo not shown) [Compound 31650] |  | 0.114 | 0.611 | 6.7 | 4.8 | −0.82 ± 0.15 | 0.091 | −0.66 ± 0.05 |  | 1.3 | 0.31 µM | 
Fc1ccc(C(OCCCCN2CCN(c3cccc(Cl)c3)CC2)c2ccc(F)cc2)cc1 [Compound 31651] |  | 1.67 ± 0.44 | 0.3 ± 0.07 | 1.7 | 0.8 |  | 0.175 ± 0.071 |  |  | 9.5 | 0.189 ± 0.089 µM | 
Fc1ccc(C(OCCCCN2CCN(c3ccc(Cl)cc3)CC2)c2ccc(F)cc2)cc1 [Compound 31652] |  |  |  | 7.6 | 0.7 | −1.08 ± 0.18 |  | −0.80 ± 0.08 | 0.05 | 23.4 | 0.39 µM | IC50 ([1]; [3H]NE Uptake IC50): 0.39 µM; IC50 [2]: 1.17 µM; Ki ([3]; [125I]RTI-55 binding Ki, NET): 0.38 µM and 3.8 µM
Fc1ccc(C(OCCCCN2CCN(c3ccccc3)CC2)c2ccc(F)cc2)cc1 [Compound 31653] |  |  |  | 3.3 | 0.8 | −1.14 ± 0.10 |  | −0.93 ± 0.17 | 0.0609 | 23.2 |  | IC50 ([1]; [3H]NE Uptake IC50): 0.0563 µM; IC50 [2]: 1.41 µM; Ki ([3]; [125I]RTI-55 binding Ki, NET): 0.203 µM
COc1ccccc1N1CCN(CCCCOC(c2ccc(F)cc2)c2ccc(F)cc2)CC1 [Compound 31654] |  | 0.301 | 0.092 | 3.5 | 9.7 | −0.88 ± 0.09 | 0.0262 | −0.59 ± 0.02 |  | 11.5 | 0.176 µM | 

From US6835371B1 (priority 1997, dated 2004)
